The target of test [1] is Poly [ADP-ribose] polymerase 1 (Homo sapiens, UniProt P09874).
Description: Inhibition of human recombinant PARP1
Test [2] deals with PC-12. In words: Cytoprotective activity against oxygen-glucose deprivation-induced cell death in rat PC12 cells by MTT assay. It is filed as functional, cell-based. (Formazan colour is commonly taken as a measure of viable cells.)
Test [3] has as its system PC-12. The test can be described thus: Cytoprotective activity against H2O2-induced cell death in rat PC12 cells by MTT assay after 6 hrs. It is filed as functional, cell-based. The settings on record: PC-12, 6 h.
Test [4] concerns PC-12. The test can be described thus: Cytoprotective activity against oxygen-glucose deprivation-induced apoptosis in rat PC12 assessed as late apoptotic cells at 3 uM by flow cytometry using FITC-conjugated annexin V and propidium iodide staining relative to control. It is filed as functional. For orientation: A flow cytometer gives signals particle by particle.
The subject of test [5] is PC-12. The test can be described thus: Cytoprotective activity against oxygen-glucose deprivation-induced apoptosis in rat PC12 assessed as total apoptotic cells at 3 uM by flow cytometry using FITC-conjugated annexin V and propidium iodide staining relative to control. It counts as functional.
Test [6] deals with PC-12. The test can be described thus: Cytoprotective activity against oxygen-glucose deprivation-induced apoptosis in rat PC12 assessed as early apoptotic cells at 3 uM by flow cytometry using FITC-conjugated annexin V and propidium iodide staining relative to control. It is filed as functional.
The test system of test [7] is PC-12. The test can be described thus: Cytoprotective activity in rat PC12 cells assessed as reduction in oxygen-glucose deprivation-induced LDH release at 3 uM. It is filed as functional. Also on record: scale not given: the % may be the effect or the level left. (In general: LDH in the medium is a marker of cell lysis.)
Test [8] concerns PC-12. In words: Cytoprotective activity against oxygen-glucose deprivation-induced apoptosis in rat PC12 assessed as live cells at 3 uM by flow cytometry using FITC-conjugated annexin V and propidium iodide staining relative to control. It is filed as functional.
In test [9] the test system is PC-12. In words: Cytoprotective activity against oxygen-glucose deprivation-induced apoptosis in rat PC12 assessed as damaged cells at 3 uM by flow cytometry using FITC-conjugated annexin V and propidium iodide staining relative to control. It is filed as functional.

Chain of Poly [ADP-ribose] polymerase 1 (P09874 whole entry): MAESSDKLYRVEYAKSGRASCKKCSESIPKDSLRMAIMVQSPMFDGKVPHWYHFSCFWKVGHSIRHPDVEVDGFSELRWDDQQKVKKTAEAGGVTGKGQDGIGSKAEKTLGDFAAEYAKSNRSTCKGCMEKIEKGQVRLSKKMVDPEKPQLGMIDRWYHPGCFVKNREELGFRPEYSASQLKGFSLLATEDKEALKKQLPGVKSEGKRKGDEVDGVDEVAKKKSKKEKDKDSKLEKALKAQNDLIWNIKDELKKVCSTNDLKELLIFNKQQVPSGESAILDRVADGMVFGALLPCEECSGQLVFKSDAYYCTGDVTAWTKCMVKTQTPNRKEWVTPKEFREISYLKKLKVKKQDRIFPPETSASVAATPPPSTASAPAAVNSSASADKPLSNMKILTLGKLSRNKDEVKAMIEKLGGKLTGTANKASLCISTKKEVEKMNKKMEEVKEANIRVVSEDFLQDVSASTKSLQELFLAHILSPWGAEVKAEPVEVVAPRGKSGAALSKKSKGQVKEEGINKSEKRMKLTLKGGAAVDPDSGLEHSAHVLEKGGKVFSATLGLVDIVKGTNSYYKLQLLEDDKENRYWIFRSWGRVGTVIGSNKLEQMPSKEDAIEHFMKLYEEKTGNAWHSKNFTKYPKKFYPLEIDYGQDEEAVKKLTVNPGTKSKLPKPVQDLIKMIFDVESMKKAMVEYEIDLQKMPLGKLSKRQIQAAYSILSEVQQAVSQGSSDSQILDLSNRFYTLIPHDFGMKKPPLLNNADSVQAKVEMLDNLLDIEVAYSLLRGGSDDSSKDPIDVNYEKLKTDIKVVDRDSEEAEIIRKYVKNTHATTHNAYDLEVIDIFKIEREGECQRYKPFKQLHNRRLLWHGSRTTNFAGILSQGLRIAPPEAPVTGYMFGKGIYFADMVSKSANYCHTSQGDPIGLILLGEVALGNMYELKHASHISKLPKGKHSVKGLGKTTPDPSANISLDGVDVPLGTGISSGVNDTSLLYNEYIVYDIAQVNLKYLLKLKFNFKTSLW

In test [1], `O=c1[nH]c(CCCN2CC=C(c3ccccc3)CC2)nc2cccc(Cl)c12` returned a concentration for half-maximal inhibition (IC50) of 682 nM.

With `O=c1[nH]c2ccc(CCCN3CC=C(c4ccccc4)CC3)cc2c2ccccc12`, in test [1], the concentration for half-maximal inhibition (IC50) is 119 nM.

`CCOC(=O)CCC(=O)Nc1nc2c(s1)CCCC2`: the figures for the EC50 in the test with PC-12 [2] and in the test with PC-12 [3] were 961 nM and more than 3000 nM, respectively. The same compound showed an IC50 in test [1] of 12400 nM.

On to `O=C(/C=C/c1ccccc1)Nc1nc(-c2ccccc2)cs1`, for which the Activity in the test with PC-12 [4] turned out to be 3.7%; with PC-12 [5], 64.4%; with PC-12 [6] it was 8.4%; in the test with PC-12 [7], 33.1%; with PC-12 [8] it was 84%; in the test on PC-12 [9], 3.9%. Moreover, the EC50 came out at 559 nM in the test on PC-12 [2] and 129 nM in the test on PC-12 [3]. The compound also registered an IC50 in test [1] of 224 nM.

In the case of `CCOC(=O)CCC(=O)Nc1nc(-c2ccccc2)cs1`, the Activity in the test on PC-12 [4] amounted to 5.9%; in the test with PC-12 [5], 70.7%; with PC-12 [6], 8.5%; with PC-12 [7], 34.6%; in the test with PC-12 [8], 80.6%; in the test on PC-12 [9] it was 5%. The concentration giving a half-maximal response (EC50) in the test with PC-12 [2] worked out at 143 nM; with PC-12 [3] it was 537 nM. The IC50 in [1] was 240 nM.

`Nc1ncnc2c1ncn2[C@@H]1O[C@H](COCNC(=O)CCC(=O)Nc2cccc3c2CNC3=O)[C@@H](O)[C@H]1O` displayed a concentration for half-maximal inhibition (IC50) in [1] of 100 nM.

`Cc1sc(-c2ccccc2)nc1C(=O)Nc1cccc(Cc2n[nH]c(=O)c3ccccc23)c1`: inhibition in test [1] was half-maximal at 27 nM (IC50).

In [1], `O=C(CCn1c2c(c(=O)[nH]c1=O)CSCC2)NCC(=O)c1ccc(-c2ccnnc2)cc1` had an IC50 of 25 nM.

Compound `O=C1NCCn2c(CN3CCCCC3)cc3cccc1c32` came in with a concentration for half-maximal inhibition (IC50) in [1] of 109 nM.

In test [1], `O=c1[nH]c2ccc(CCN3CC=C(c4ccccc4)CC3)cc2c2ccccc12` came in with a 50% inhibitory concentration (IC50) of 46 nM.

In the case of `CCOc1ccc(-c2csc(/N=C/c3c[nH]c4ccccc34)n2)c(OCC)c1`, the EC50 in the test on PC-12 [2] was 361 nM; in the test with PC-12 [3], 324 nM. The compound also showed an IC50 in test [1] of 240 nM. Besides, the Activity with PC-12 [7] is 28.4%.

For the compound `CN(C)CCCOc1ccc(-c2nc3cccc4c3n2CCNC4=O)cc1`, the IC50 in test [1] is 63 nM.

For the compound `O=c1[nH]c(CCCN2CC=C(c3ccccc3)CC2)nc2c1CCC2`, half-maximal inhibition in test [1] (IC50) was put at 249 nM.

As to `CC1CCc2nc(CCCN3CC=C(c4ccccc4)CC3)[nH]c(=O)c2C1` (configuration not stated), the IC50 in [1] came to 274 nM.

In the case of `CCOC(=O)c1ccc(CCc2nc3cccc4c3n2CCNC4=O)cc1`, in test [1], half-maximal inhibition (IC50) was put at 97 nM.

In the case of `O=C(Nc1nc(-c2ccccc2)cs1)c1ccncc1`, the Activity is 11.6% in the test with PC-12 [4]; 45.1% with PC-12 [5]; 8.6% in the test with PC-12 [6]; 20.1% in the test with PC-12 [7]; 73.8% in the test on PC-12 [8]; 6% in the test on PC-12 [9]. Also, the EC50 in the test with PC-12 [2] was 191 nM; in the test on PC-12 [3], 1550 nM. The compound also came in with an IC50 in test [1] of 753 nM.

For `COc1cc(/C=C/C(=O)Nc2nc(-c3ccccc3)cs2)cc(OC)c1`, the EC50 was 527 nM with PC-12 [2] and 1120 nM with PC-12 [3]. The half-inhibitory concentration (IC50) in test [1] stood at 4530 nM. Moreover, in the test on PC-12 [7], the Activity was 24%.

As for `COc1cc(/C=C/C(=O)Nc2nc3c(s2)CCCC3)cc(OC)c1`, the EC50 in the test with PC-12 [2] came out at 1040 nM; in the test on PC-12 [3], 2090 nM. In addition, half-maximal inhibition in [1] (IC50) was put at 9330 nM.

Usually IC50 stands for the midpoint of a concentration-inhibition curve. As usually defined, the EC50 is the midpoint of the concentration-response curve.
